Experimental data taken from US11498899B2, “Nitrone herbicides” (FMC Corporation, priority 2016, dated 2022).

Key:
[1] = tested on: barnyardgrass (Echinochloa crus-galli); assay: Test A preemergence, visual injury rating 0-100 (0 no effect, 100 complete control); format: in vivo
[2] = tested on: ducksalad (Heteranthera limosa); assay: Test B flooded paddy test, visual rating 0-100; details: Flood, 250 g ai/ha, applied to paddy water, rated after 13 to 15 days
[3] = tested on: barnyardgrass (Echinochloa crus-galli); assay: Test B flooded paddy test, visual rating 0-100; details: Flood, 250 g ai/ha, applied to paddy water, rated after 13 to 15 days
[4] = tested on: ragweed (common ragweed, Ambrosia elatior); assay: Test A preemergence, visual injury rating 0-100; format: in vivo
[5] = tested on: kochia (Kochia scoparia); assay: Test A preemergence, visual injury rating 0-100; format: in vivo
[6] = tested on: ryegrass, Italian (Italian ryegrass, Lolium multiflorum); assay: Test A preemergence, visual injury rating 0-100; format: in vivo
[7] = tested on: foxtail, giant (giant foxtail, Setaria faberii); assay: Test A preemergence, visual injury rating 0-100; format: in vivo
[8] = tested on: pigweed (Amaranthus retroflexus); assay: Test A preemergence, visual injury rating 0-100; format: in vivo
[9] = tested on: barnyardgrass (Echinochloa crus-galli); assay: Test A postemergence, visual injury rating 0-100; format: in vivo; details: 0 to 100 scale
[10] = tested on: corn (Zea mays); assay: Test A postemergence, visual injury rating 0-100; format: in vivo; details: 0 to 100 scale
[11] = tested on: ragweed (common ragweed, Ambrosia elatior); assay: Test A postemergence, visual injury rating 0-100; format: in vivo; details: 0 to 100 scale
[12] = tested on: blackgrass (Alopecurus myosuroides); assay: Test A postemergence, visual injury rating 0-100; format: in vivo; details: 0 to 100 scale
[13] = tested on: kochia (Kochia scoparia); assay: Test A postemergence, visual injury rating 0-100; format: in vivo; details: 0 to 100 scale
[14] = tested on: galium (catchweed bedstraw, Galium aparine); assay: Test A postemergence, visual injury rating 0-100; format: in vivo; details: 0 to 100 scale
[15] = tested on: wheat (Triticum aestivum); assay: Test A postemergence, visual injury rating 0-100; format: in vivo; details: 0 to 100 scale
[16] = tested on: ryegrass, Italian (Italian ryegrass, Lolium multiflorum); assay: Test A postemergence, visual injury rating 0-100; format: in vivo; details: 0 to 100 scale
[17] = tested on: foxtail, giant (giant foxtail, Setaria faberii); assay: Test A postemergence, visual injury rating 0-100; format: in vivo; details: 0 to 100 scale
[18] = tested on: pigweed (Amaranthus retroflexus); assay: Test A postemergence, visual injury rating 0-100; format: in vivo; details: 0 to 100 scale
[19] = tested on: rice (Oryza sativa); assay: Test B flooded paddy test, visual rating 0-100 (0 no effect, 100 complete control); details: Flood, 250 g ai/ha, applied to paddy water, rated after 13 to 15 days
[20] = 31 g ai/ha, 0 to 100 scale (0 no effect, 100 complete control), approx. 10 days

Row | Compound | Barnyardgrass plant response rating (0 to 100 scale) ([1]; 125 g ai/ha) | Ducksalad plant response rating (0 to 100 scale) [2] | Barnyardgrass plant response rating (0 to 100 scale) [3] | Ragweed plant response rating (0 to 100 scale) ([4]; 125 g ai/ha) | Ragweed plant response rating (0 to 100 scale) ([4]; 500 g ai/ha) | Kochia plant response rating (0 to 100 scale) ([5]; 125 g ai/ha) | Kochia plant response rating (0 to 100 scale) ([5]; 500 g ai/ha) | Foxtail, Giant plant response rating (0 to 100 scale) ([7]; 125 g ai/ha) | Pigweed plant response rating (0 to 100 scale) ([8]; 125 g ai/ha) | Barnyardgrass plant response rating ([9]; 125 g ai/ha) | Corn plant response rating ([10]; 125 g ai/ha) | Ragweed plant response rating ([11]; 125 g ai/ha) | Blackgrass plant response rating ([12]; 125 g ai/ha) | Kochia plant response rating ([13]; 125 g ai/ha) | Galium plant response rating ([14]; 125 g ai/ha) | Wheat plant response rating ([15]; 125 g ai/ha) | Ryegrass, Italian plant response rating ([16]; 125 g ai/ha) | Foxtail, Giant plant response rating ([17]; 125 g ai/ha) | Pigweed plant response rating ([18]; 125 g ai/ha) | Rice plant response rating (0 to 100 scale) [19] | further results
1 | CC1=[N+]([O-])C(C(=O)Nc2cccc(F)c2F)C(c2cccc(C)n2)C1 (racemic) [Compound 49] | 10 | 0 | 0 | 0 | 0 | 0 | 0 | 0 | 0 | 0 | 0 | 20 | 0 | 0 | 0 | 0 | 0 | 0 | 0 | 0 | Barnyardgrass plant response rating ([1]; 500 g ai/ha, 0 to 100 scale): 20; Ryegrass, Italian plant response rating (0 to 100 scale) ([6]; 125 g ai/ha): 0; Ryegrass, Italian plant response rating (0 to 100 scale) ([6]; 500 g ai/ha): 20; Foxtail, Giant plant response rating ([7]; 500 g ai/ha, 0 to 100 scale): 40; Pigweed plant response rating (0 to 100 scale) ([8]; 500 g ai/ha): 0; Barnyardgrass plant response rating ([9]; 500 g ai/ha): 0; Corn plant response rating ([10]; 500 g ai/ha): 0; Ragweed plant response rating ([11]; 500 g ai/ha): 20; Blackgrass plant response rating ([12]; 500 g ai/ha): 0; Kochia plant response rating ([13]; 500 g ai/ha): 0; Galium plant response rating ([14]; 500 g ai/ha): 0; Wheat plant response rating ([15]; 500 g ai/ha): 0; Ryegrass, Italian plant response rating ([16]; 500 g ai/ha): 30; Foxtail, Giant plant response rating ([17]; 500 g ai/ha): 0; Pigweed plant response rating ([18]; 500 g ai/ha): 0
2 | CC1=[N+]([O-])[C@H](C(=O)Nc2cccc(F)c2F)[C@@H](c2ccc(F)c(OC(F)(F)C(F)F)c2)C1 [Compound 54, (2S,3R)—N-(2,3-Difluorophenyl)-3-[4-fluoro-3-(1,1,2,2-tetrafluoroethyoxy)phenyl]-3,4-dihydro-5-methyl-2H-pyrrole-2-carboxamide 1-oxide] | 90 | 80 | 35 | 50 |  | 50 |  | 90 | 70 | 70 | 70 | 30 | 70 | 50 | 70 | 50 | 70 | 70 | 60 | 0 | Barnyardgrass plant response rating [1, 20]: 80; Ragweed plant response rating [4, 20]: 0; Kochia plant response rating [5, 20]: 0; Ryegrass, Italian plant response rating [6, 20]: 60; Ryegrass, Italian plant response rating (0 to 100 scale) ([6]; 125 g ai/ha): 80; Foxtail, Giant plant response rating [7, 20]: 90; Pigweed plant response rating [8, 20]: 0; Barnyardgrass plant response rating ([9]; 31 g ai/ha): 30; Corn plant response rating ([10]; 31 g ai/ha): 40; Ragweed plant response rating ([11]; 31 g ai/ha): 0; Blackgrass plant response rating ([12]; 31 g ai/ha): 60; Kochia plant response rating ([13]; 31 g ai/ha): 0; Galium plant response rating ([14]; 31 g ai/ha): 40; Wheat plant response rating ([15]; 31 g ai/ha): 0; Ryegrass, Italian plant response rating ([16]; 31 g ai/ha): 0; Foxtail, Giant plant response rating ([17]; 31 g ai/ha): 30; Pigweed plant response rating ([18]; 31 g ai/ha): 20
3 | CC1=[N+]([O-])C(C(=O)Nc2cccc(F)c2F)C(c2cc(F)c(F)c(F)c2)C1 (stereo not drawn) [Compound 95] | 90 | 100 | 80 | 20 | 80 | 0 | 70 | 90 | 20 | 70 | 0 | 0 | 60 | 30 | 0 | 10 | 40 | 80 | 0 | 0 | Barnyardgrass plant response rating (0 to 100 scale) ([1]; 500 g ai/ha): 90; Ryegrass, Italian plant response rating (0 to 100 scale) ([6]; 125 g ai/ha): 30; Ryegrass, Italian plant response rating (0 to 100 scale) ([6]; 500 g ai/ha): 90; Foxtail, Giant plant response rating (0 to 100 scale) ([7]; 500 g ai/ha): 100; Pigweed plant response rating (0 to 100 scale) ([8]; 500 g ai/ha): 80; Barnyardgrass plant response rating ([9]; 500 g ai/ha): 80; Corn plant response rating ([10]; 500 g ai/ha): 50; Ragweed plant response rating ([11]; 500 g ai/ha): 20; Blackgrass plant response rating ([12]; 500 g ai/ha): 70; Kochia plant response rating ([13]; 500 g ai/ha): 50; Galium plant response rating ([14]; 500 g ai/ha): 50; Wheat plant response rating ([15]; 500 g ai/ha): 60; Ryegrass, Italian plant response rating ([16]; 500 g ai/ha): 70; Foxtail, Giant plant response rating ([17]; 500 g ai/ha): 90; Pigweed plant response rating ([18]; 500 g ai/ha): 20
4 | CC1=[N+]([O-])C(C(=O)Nc2cccc(F)c2F)C(c2cc(C)c(F)c(C)c2)C1 (racemic) [Compound 111] | 90 | 0 | 0 | 0 | 90 | 0 | 90 | 90 | 20 | 70 | 70 | 30 | 80 | 0 | 50 | 50 | 40 | 40 | 0 | 0 | Barnyardgrass plant response rating (0 to 100 scale) ([1]; 500 g ai/ha): 90; Ryegrass, Italian plant response rating (0 to 100 scale) ([6]; 500 g ai/ha): 90; Foxtail, Giant plant response rating (0 to 100 scale) ([7]; 500 g ai/ha): 90; Pigweed plant response rating (0 to 100 scale) ([8]; 500 g ai/ha): 60; Barnyardgrass plant response rating ([9]; 500 g ai/ha): 90; Corn plant response rating ([10]; 500 g ai/ha): 90; Ragweed plant response rating ([11]; 500 g ai/ha): 70; Blackgrass plant response rating ([12]; 500 g ai/ha): 80; Kochia plant response rating ([13]; 500 g ai/ha): 0; Galium plant response rating ([14]; 500 g ai/ha): 70; Wheat plant response rating ([15]; 500 g ai/ha): 70; Ryegrass, Italian plant response rating ([16]; 500 g ai/ha): 80; Foxtail, Giant plant response rating ([17]; 500 g ai/ha): 90; Pigweed plant response rating ([18]; 500 g ai/ha): 20
5 | CC1=[N+]([O-])C(C(=O)Nc2cccc(F)c2F)C(c2ccc(C(F)(F)F)cc2F)C1 (stereo not drawn) [Compound 101] | 90 | 90 | 50 | 10 | 90 | 30 | 90 | 90 | 70 | 50 | 20 | 30 | 70 | 30 | 70 | 10 | 50 | 80 | 0 | 0 | Barnyardgrass plant response rating (0 to 100 scale) ([1]; 500 g ai/ha): 90; Ryegrass, Italian plant response rating (0 to 100 scale) ([6]; 125 g ai/ha): 40; Ryegrass, Italian plant response rating (0 to 100 scale) ([6]; 500 g ai/ha): 90; Foxtail, Giant plant response rating (0 to 100 scale) ([7]; 500 g ai/ha): 90; Pigweed plant response rating (0 to 100 scale) ([8]; 500 g ai/ha): 90; Barnyardgrass plant response rating ([9]; 500 g ai/ha): 90; Corn plant response rating ([10]; 500 g ai/ha): 70; Ragweed plant response rating ([11]; 500 g ai/ha): 60; Blackgrass plant response rating ([12]; 500 g ai/ha): 80; Kochia plant response rating ([13]; 500 g ai/ha): 60; Galium plant response rating ([14]; 500 g ai/ha): 80; Wheat plant response rating ([15]; 500 g ai/ha): 60; Ryegrass, Italian plant response rating ([16]; 500 g ai/ha): 50; Foxtail, Giant plant response rating ([17]; 500 g ai/ha): 90; Pigweed plant response rating ([18]; 500 g ai/ha): 60
